In patent US11390621B2, “Chiral indole compounds and their use” (ARIAGEN, INC., priority 2019, dated 2022):
“And” between values parts separate entries of the source, which are not always exact repeats. Equal values may be shown once. Read-outs that look alike come from different tables or passages of the source.

Columns and labels:
EMT-6 cancer cells = assay: EMT-6 subcutaneous syngeneic mouse tumor model (Example 48); format: in vivo, BALB/C mice; settings: 40 mg/kg, IP
Protocol: This example describes in vivo studies that evaluated the anti-cancer efficacy of ARI-143, ARI-164, ARI-165, and ARI-186 in syngeneic mouse tumor models. Mice implanted subcutaneously with EMT-6 or Pan02 cancer cells were treated with ARI-143, ARI-164, ARI-165, ARI-186, or vehicle controls, as described below.
A monolayer culture of tumor cells was maintained in vitro in DMEM or RPMI1640 medium supplemented with 10% fetal bovine serum at 37° C. in an atmosphere of 5% CO2. Cells in exponential growth phase were harvested and quantitated by cell counter before tumor inoculation. The cell lines used are described in the table below.
Two subcutaneous syngeneic mouse tumor models were generated by innoculating female BALB/C or C57BL/6 mice with cancer cells at their right lower or front flank as detailed in the table below:
Each mouse was inoculated subcutaneously with tumor cells in 0.1 mL of PBS. Treatments were started when the mean tumor size reached approximately 80-120 mm^3 (around 100 mm^3). The administration of the test compounds and the animal number in each study group are shown in the study design. The date of tumor cell inoculation was denoted as day 0.
ARI-143, ARI-164, and ARI-165 were dissolved in DMSO at the final concentration of 26.7 mg/ml and stored at room temperature. In Pan02 studies of ARI-164 and ARI-186, both compounds were dissolved in 100% PEG400.
Randomization of animals was started when the mean tumor size reached approximately 90 mm^3 to form the mouse study groups. The randomization was-performed based on “Matched distribution” method using the multi-task method (StudyDirector™ software, version 3.1.399.19)/randomized block design. The mouse groups (ten in each group) were treated with vehicle (DMSO or PEG400) or the test compounds at a dose of 26-80 mg/kg by intraperitoneal (i.p.). injection, QD for 28 days or longer.
After tumor cell inoculation, the mice were checked daily for morbidity and mortality. During routine monitoring, the mice were checked for tumor growth and any effects of the treatment on behavior such as mobility, food and water consumption, body weight gain/loss (body weights were measured twice per week after randomization), eye/hair matting, and any other abnormalities. Mortality and observed clinical signs were recorded for individual mice in detail.
Tumor volumes were measured twice per week in two dimensions using a caliper, and the volume was expressed in mm^3 using the formula: V=(L×W×W)/2, where V is tumor volume, L is tumor length (the longest tumor dimension) and W is tumor width (the longest tumor dimension perpendicular to L). Dosing as well as tumor and body weight measurements was conducted in a Laminar Flow Cabinet. The body weights and tumor volumes were measured by using StudyDirector™ software (version 3.1.399.19). Dosing Holiday
Tumor growth inhibition percentage (TGI %) is an indicator for antitumor activity of a drug compound, and expressed as: TGI(%)=100×(1−T/C), where T and C are the mean tumor volume (or weight) of the treated and control groups, respectively, on a given day. Statistical analysis of the difference in mean tumor volume (MTV) among the groups was conducted using the data collected on the day when the MTV of the vehicle group reached the humane endpoints, so that TGI could be derived for all or most mice enrolled in the study.

[1] = In vivo pharmacokinetic studies in rats; set-up: species or system SD rats; settings: rats; for AUC(0-t): read-out: AUClast; for Tmax: read-out: Tmax
Protocol: This example describes pharmacokinetic (PK) studies of ARI-164, ARI-165, ARI-186, ARI-224, and ARI-226 in mice and rats. In the present studies, the test compounds were given to groups of mice and/or rats (N=3 in each group), intravenously (IV) at 2 mg/kg or orally (PO) at 10, 30, or 40 mg/kg. ARI-186, ARI-224 and ARI-226 were given orally to rats QD for 5 days at 10 mg/kg to assess whether decreased susceptibility to CYP1A1/1A2 metabolism would lead to increased accumulation. IV doses were formulated in DMSO, while PO doses were formulated in a 50/50 mixture of PEG400 and Tween 80 (single dose mouse and rat studies for ARI-164, ARI-165, ARI-186, ARI-224, ARI-226) or PEG400/Kolliphor HS15/Oleic Acid 45/45/10 (ARI-164 repeat dose rat study). Blood samples were collected at pre-dose and over a period of 24 hours post-dose. Plasma concentrations of the test compounds were determined by HPLC.

[2] = SD, rat, plasma, iv, 2 mg/kg, single 2 mg/kg IV dose, Mean of 3 animals
[3] = SD, rat, plasma, iv, 2 mg/kg, single 2 mg/kg IV dose, individual animal
[4] = Sprague-Dawley (SD), rat, plasma, iv, 2 mg/kg, single 2 mg/kg IV dose, Mean of 3 animals
[5] = Sprague-Dawley (SD), rat, plasma, po, 10 mg/kg, single 10 mg/kg PO dose, Mean of 3 animals
[6] = Sprague-Dawley (SD), rat, plasma, po, 10 mg/kg, single 10 mg/kg PO dose, individual animal
[7] = single 2 mg/kg IV dose, individual animal, 2 mg/kg
[8] = single 10 mg/kg PO dose, individual animal, 10 mg/kg

CC[C@@H](O)c1csc(C(=O)c2c[nH]c3cc(F)ccc23)n1 [ARI-165, (R)-(6-Fluoro-1H-indol-3-yl)(4-(1-hydroxypropyl)thiazol-2-yl)methanone]
TGI (EMT-6 cancer cells; study day 6): 0.0%
TGI (EMT-6 cancer cells; study day 10): −7.9%
TGI (EMT-6 cancer cells; study day 13): −8.6%
TGI (EMT-6 cancer cells; study day 17): 14.5%
TGI (EMT-6 cancer cells; study day 20): 23.1%
TGI (EMT-6 cancer cells; study day 24): 25.8%
TGI (EMT-6 cancer cells; study day 27): 12.5%
TGI (EMT-6 cancer cells; study day 31): 9.1%
AUC(0-inf) [1, 2]: 12800 ng·h/mL
clearance [1, 2]: 5.38 mL/min/kg
AUC(0-t) [1, 2]: 12600 ng·h/mL
MRT inf [1, 3]: 0.81 h
MRT last [1, 3]: 0.79 h
Tmax [1, 3]: 0.083 h
MRT inf [1, 4]: 1.11 h
MRT last [1, 4]: 0.959 h
half-life [1, 4]: 1.33 h
Cmax ([1]; Sprague-Dawley (SD), rat, plasma, iv, 2 mg/kg, single 2 mg/kg IV dose, Mean of 3 animals, read-out: Cmax): 19200 ng/mL
Tmax [1, 4]: 0.083 h
Vd ([1]; Sprague-Dawley (SD), rat, plasma, iv, 2 mg/kg, single 2 mg/kg IV dose, Mean of 3 animals, read-out: Vss): 0.32 L/kg
AUC(0-inf) [1, 5]: 4310 ng·h/mL
MRT inf [1, 5]: 3.08 h
MRT last [1, 5]: 2.82 h
half-life [1, 5]: 1.09 h
AUC(0-t) [1, 5]: 4160 ng·h/mL
Cmax ([1]; Sprague-Dawley (SD), rat, plasma, po, 10 mg/kg, single 10 mg/kg PO dose, Mean of 3 animals, read-out: Cmax): 1120 ng/mL
Tmax [1, 5]: 2 h
AUC(0-inf) [1, 6]: 4680 ng·h/mL
MRT inf [1, 6]: 3.41 h
MRT last [1, 6]: 2.71 h
AUC(0-t) [1, 6]: 4260 ng·h/mL
Cmax ([1]; Sprague-Dawley (SD), rat, plasma, po, 10 mg/kg, single 10 mg/kg PO dose, individual animal, read-out: Cmax): 1250 ng/mL
Tmax [1, 6]: 2 h
bioavailability ([1]; Sprague-Dawley (SD), rat, plasma, 10 mg/kg PO vs 2 mg/kg IV, read-out: F (Bioavailability)): 6.73%
AUCinf [1, 7]: 19500 ng·h/mL and 16300 ng·h/mL and 2690 ng·h/mL
AUClast [1, 7]: 19500 ng·h/mL and 15700 ng·h/mL and 2620 ng·h/mL
Cl [1, 7]: 1.72 mL/min/kg and 2.05 mL/min/kg and 12.4 mL/min/kg
Cmax [1, 7]: 36500 ng/mL and 17100 ng/mL and 3880 ng/mL
MRTinf [1, 7]: 1.61 h and 0.91 h
MRTlast [1, 7]: 1.28 h and 0.8 h
T1/2 [1, 7]: 1.07 h and 2.11 h and 0.83 h
Vss [1, 7]: 0.0832 L/kg and 0.198 L/kg and 0.677 L/kg
AUCinf [1, 8]: 4650 ng·h/mL and 3620 ng·h/mL
AUClast [1, 8]: 4640 ng·h/mL and 3560 ng·h/mL
Cmax [1, 8]: 1070 ng/mL and 1040 ng/mL
MRTinf [1, 8]: 3.12 h and 2.71 h
MRTlast [1, 8]: 3.12 h and 2.64 h
T1/2 [1, 8]: 1.87 h and 0.541 h and 0.87 h
